Experimental data: patent US8628767B2, “Purine nucleoside phosphorylase as enzymatic activator of nucleoside prodrugs” (priority 2008, dated 2014)
Like-named read-outs stand apart in the source and are kept apart here.

Assays:
E. coli PNP = E. coli PNP (Escherichia coli, UniProt P0ABP8); test: Substrate cleavage by wild-type E. coli PNP (HPLC); format: biochemical; details: 100 micromolar substrate, HPLC separation of base from nucleoside
Experimental: (§1) The method quantitatively measures the cleavage of substrates in vitro. The purine analog nucleosides (0.1 mM in 500 μl of 100 mM HEPES, pH 7.4, 50 mM potassium phosphate) are combined with 100 μg/ml Tv-PNP or wild-type E. coli PNP. The reaction mixtures are incubated at 25° C. for 1 hour, and the reactions stopped by boiling each sample for 2 minutes. Protein concentration and time of assay are varied depending on activity of enzyme for a particular substrate. Each sample is analyzed by reverse phase HPLC to measure conversion from substrate to product. The nucleoside and purine analogs are eluted from a Spherisorb ODSI (5 μm) column (Keystone Scientific, Inc., State College, Pa.) with a solvent containing 50 mM ammonium dihydrogen phosphate (95%) and acetonitrile (5%). Products are detected by absorbance at 254 nm, and are identified by comparing their retention times and absorption spectra with authentic control samples.
Numerous compounds are tested for efficiency as substrate for Tv-PNP in parallel comparison with E. coli PNP. […] The enzymes are incubated with 100 micromolar of each compound listed in the table and the rate of enzymatic cleavage is determined by HPLC separation of the base from the nucleoside.

[1] = Tolerated dose of MeP-dR in mice; format: in vivo
Source text: The formula of Freidenreich et al., Cancer Chemother. Rep., 50:219-244, (1966) is optionally used to determine the maximum tolerated dose of substrate for a human subject. […] This amount or slightly less is expected to maximize tumor cell killing in humans without killing the subject thereby generating a favorable efficacy to safety profile. This standard of effectiveness is accepted in the field of cancer therapy. More preferably, a drug levels administered range from about 10% to 1% of the maximum tolerated dosage (for example, 7.5 mg/m^2-0.75 mg/m^2). It is understood that modes of administration that permit the substrate to remain localized at or near the site of the tumor will be effective at lower doses than systemically administered substrates.

T. vaginalis PNP [2] = test: Substrate cleavage by wild-type Tv-PNP (HPLC); format: biochemical, Trichomonas vaginalis; details: for rate of enzymatic cleavage by T. vaginalis PNP: 100 micromolar substrate, HPLC separation of base from nucleoside
Experimental: as §1
Numerous compounds are tested for efficiency as substrate for Tv-PNP in parallel comparison with E. coli PNP. The compounds include various analogs of adenosine, of inosine, of MeP-dR, and of fluoro- or chloro-substituted adenosine. The enzymes are incubated with 100 micromolar of each compound listed in the table and the rate of enzymatic cleavage is determined by HPLC separation of the base from the nucleoside. […] It is appreciated that the greater biological activity of the Tv-PNP enzyme allows for greater activity in impairing abnormal cell growth when the Tv-PNP is used for treatment of pathological conditions using F-araA as a prodrug substrate.

[3] = test system: tumor expressing wild-type E. coli PNP enzyme; details: cited from earlier work
T. vaginalis PNP [4] = details: Wang et al.; cited from earlier work
[5] = Cleavage of F-araA by PNPs of various origins (HPLC); format: biochemical; details: for F-araA rate of cleavage: 100 μM F-araA, enzymes of various purities
tumors = test: In vivo efficacy experiments, tm-PNP versus M65V
[6] = Cleavage of MeP-dR by PNPs of various origins (HPLC); format: biochemical; details: 100 μM MeP-dR, enzymes of various purities
[7] = equimolar quantities of substrate

Chain of E. coli PNP (P0ABP8 whole entry): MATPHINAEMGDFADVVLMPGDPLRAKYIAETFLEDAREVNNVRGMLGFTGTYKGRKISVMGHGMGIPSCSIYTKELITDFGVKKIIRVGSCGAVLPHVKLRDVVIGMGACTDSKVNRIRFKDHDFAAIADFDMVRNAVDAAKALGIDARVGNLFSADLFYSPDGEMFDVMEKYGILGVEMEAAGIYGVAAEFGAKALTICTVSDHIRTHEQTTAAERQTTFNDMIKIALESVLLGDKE

Row | Molecule | rate of enzymatic cleavage by E. coli PNP (E. coli PNP) | rate of enzymatic cleavage by T. vaginalis PNP (T. vaginalis PNP [2]) | F-araA rate of cleavage [5] | MeP-dR rate of cleavage [6] | MeP-dR/F-araA cleavage ratio [5, 7] | also measured
1 | Cc1ncnc2c1ncn2[C@H]1C[C@H](O)[C@@H](CO)O1 [9-(2-deoxy-β-D-ribofuranosyl]-6-methylpurine] | 528,000 nanomoles per milligrams per hour | 484,000 nanomoles per milligrams per hour | – | – | – | toxicity ([1]; mice, systemic, 25 mg per kg per day for 9 days (9 doses total)): some toxicity but no lethality; human dosage (maximum tolerated dose) by formula of Freidenreich et al. ([1]; mouse, in vivo, 25 mg/kg): 75 mg/m^2
2 | Nc1nc(F)nc2c1ncn2[C@@H]1O[C@H](CO)[C@@H](O)[C@@H]1O [9-(β-D-arabinofuranosyl)-2-fluoroadenine, reference compound] | 1,250 nanomoles per milligrams per hour | 32,000 nanomoles per milligrams per hour | – | – | – | tumor response [3]: complete responses; activity of Tv-PNP towards substrate, conventional understanding (T. vaginalis PNP [4]): does not have appreciable activity; cleavage rate by Tv-PNP relative to E. coli PNP (T. vaginalis PNP [2]; Tv-PNP rate / E. coli PNP rate): approximately 23 times; catalytic efficiency of Tv-PNP relative to E. coli PNP (T. vaginalis PNP [2]; Vmax/Km ratio): 25 fold; activity of Tv-PNP as compared to wild-type E. coli PNP (T. vaginalis PNP [2]; summary of Table 1): more activity
3 | tm-PNP: tailed mutant E. coli PNP, 30 amino acid tail in place of the terminal glutamic acid (SEQ ID NO: 8) (protein, listed as Trichomonas vaginalis) MATPHINAEMGDFADVVLMPGDPLRAKYIAETFLEDAREVNNVRGMLGFTGTYKGRKISVMGHGMGIPSCSIYTKELITDFGVKKIIRVGSCGAVLPHVKLRDVVIGMGACTDSKVNRIRFKDHDFAAIADFDMVRNAVDAAKALGIDARVGNLFSADLFYSPDGEMFDVMEKYGILGVEMEAAGIYGVAAEFGAKALTICTVSDHIRTHEQTTAAERQTTFNDMIKIALESVLLGDKGKRPRGSSRVDLQACKLGIFVKEPYFCGVT | – | – | 4.8 nmol/mg/h | 948 nmol/mg/h | – | MeP-dR/F-araA cleavage ratio [5]: 198; selectivity of cleavage of F-araA relative to wild-type E. coli PNP ([5]; from MeP-dR/F-araA ratios 198 vs 422): 2.3 fold; antitumoral activity relative to M65V (tumors): considerably greater antitumoral activity
4 | T. vaginalis PNP: wild-type Trichomonas vaginalis purine nucleoside phosphorylase, amino acid sequence SEQ ID NO: 5 (protein, listed as Trichomonas vaginalis) MATPHNSAQVGDFAETVLMCGDPLRAKLIAETYLENPKLVNNVRGIQGYTGTYKGKPISVMGHGMGLPSICIYAEELYSTYKVKTIIRVGTCGAIDMDIHTRDIVIFTSAGTNSKINRIRFMDHDYPATASFDVVCALVDAAKELNIPAKVGKGFSTDLFYNPQTELAQLMNKFHFLAVEMESAGLFPIADLYGARAGCICTVSDHILHHEETTAEERQNSFQNMMKIALEAAIKL | – | – | 30,000 nmoles/mg/hr | 536,000 nmoles/mg/hr | 18 | –
5 | human PNP: human purine nucleoside phosphorylase (protein, UniProt P00491 1-289, looked up) Purine nucleoside …: MENGYTYEDYKNTAEWLLSHTKHRPQVAIICGSGLGGLTDKLTQAQIFDYGEIPNFPRSTVPGHAGRLVFGFLNGRACVMMQGRFHMYEGYPLWKVTFPVRVFHLLGVDTLVVTNAAGGLNPKFEVGDIMLIRDHINLPGFSGQNPLRGPNDERFGDRFPAMSDAYDRTMRQRALSTWKQMGEQRELQEGTYVMVAGPSFETVAECRVLQKLGADAVGMSTVPEVIVARHCGLRVFGFSLITNKVIMDYESLEKANHEEVLAAGKQAAQKLEQFVSILMASIPLPDKAS | – | – | <1 nmol/mg/h | 35 nmol/mg/h | >35 | –
